Laboratory results reported in paper PMC9571433, “Design, Synthesis, Anti-Varicella-Zoster and Antimicrobial Activity of (Isoxazolidin-3-yl)Phosphonate Conjugates of N1-Functionalised Quinazoline-2,4-Diones” (Molecules, 2022).
≈ marks a conversion by molar mass, not a printed value. Where two headings read alike, the source gives them in different places.

Assays:
[1] = tested on: varicella-zoster virus (VZV); design: method as in PMID 24906510, PMID 28763115, PMID 24219992; conditions: read-out: EC50 inhibition of replication of varicella-zoster virus (VZV); cited from earlier work
[2] = tested on: TK+ VZV OKA strain; assay: microbe, parasite or virus in culture; type: cell-based, varicella-zoster virus; conditions: Human alphaherpesvirus 3, HEL, read-out: Antiviral Activity EC50 TK+ VZV Strain (OKA)
[3] = tested on: S. aureus ATCC 2593; assay: Broth microdilution MIC/MBC; conditions: Staphylococcus aureus, ATCC2593, 24 h, read-out: MIC = MBC
[4] = tested on: TK– VZV 07-1 strain; assay: microbe, parasite or virus in culture; type: cell-based, varicella-zoster virus; conditions: Human alphaherpesvirus 3, HEL, read-out: Antiviral Activity EC50 TK– VZV Strain (07-1)
[5] = tested on: Salmonella typhimurium TA98, TA100, TA1535 and TA1537 and Escherichia coli WP2 uvrA[pKM101]; assay: Ames mutagenicity assay (Ames MPF Penta I, bacterial reverse mutation test, with S9); type: cell-based; conditions: up to 0.625 mg/mL; with Aroclor 1254-induced rat liver S9
Experimental: The study was performed using a standard microplate Ames MPF^TM Penta I kit (Xenometrix, Allschwil, Switzerland), compliant with the OECD guideline […] [29] and the International Organization for Standardization. This test is a widely accepted short-term bacterial assay for the identification of substances that can produce genetic damage that leads to gene mutations. The bacterial strains used in this assay have various mutations that inactivate a gene involved in the synthesis of essential amino acids, either histidine (Salmonella typhimurium, TA98, TA100, TA1535 and TA1537 strains) or tryptophan (Escherichia coli, WP2uvrA[pKM101 strain), so they can only grow in the culture medium that is supplemented with that amino acid. The mutagenic potential of the sample was assessed after metabolic activation in the presence of Aroclor 1254-induced rat liver S9 (S9 Cofactor kit, Xenometrix, Allschwil, Switzerland). […]
Mutagenicity was determined using a standard microplate AMES MPF^TM PENTA I kit according to the manufacturer’s instructions (Xenometrix, Allschwil, Switzerland). […] The number of wells containing revertant colonies was counted for each dose and compared to a solvent (negative) control. […] The mutagenic potential of the sample was assessed after metabolic activation in the presence of Aroclor 1254-induced rat liver S9 (S9 Cofactor kit, Xenometrix, Allschwil, Switzerland). […]

[6] = tested on: B. cereus PCM 1948; assay: Broth microdilution MIC/MBC; conditions: Bacillus cereus
[7] = tested on: P. aeruginosa ATCC 27853; assay: Broth microdilution MIC/MBC; conditions: Pseudomonas aeruginosa, ATCC27853, 24 h, read-out: MIC = MBC
[8] = tested on: E. faecalis ATCC 29212; assay: Broth microdilution MIC/MBC; conditions: Enterococcus faecalis, ATCC29212, 24 h
[9] = tested on: human embryonic lung (HEL) cells; conditions: minimum cytotoxic concentration causing microscopically detectable alteration of cell morphology
[10] = tested on: C. albicans ATCC 10241; assay: Broth microdilution MIC/MBC (antifungal); conditions: Candida albicans, ATCC10241, read-out: MIC = MBC
[11] = tested on: A. brasiliensis ATCC 16404; assay: Broth microdilution MIC/MBC (antifungal); conditions: Aspergillus brasiliensis, ATCC16404, 72 h, read-out: MIC = MBC
[12] = tested on: E. coli ATCC 25922; assay: Broth microdilution MIC/MBC; conditions: Escherichia coli, ATCC25922, 24 h, read-out: MIC = MBC
[13] = tested on: adenovirus-2; design: method as in PMID 28763115; conditions: read-out: EC50 towards adenovirus-2; cited from earlier work

SMILES: O=C(c1ccc(F)cc1)n1c(=O)c2ccccc2n(Cc2cn(CCCOCc3ccccc3)nn2)c1=O [6a]
- EC50 [1]: 6.8 to 8.2 µM

SMILES: CCOP(=O)(OCC)[C@H]1C[C@H](Cn2c(=O)c3ccccc3n(Cc3cccc(F)c3)c2=O)ON1C (relative stereo) [Diethyl trans-(5-((1-(3-fluorobenzyl)-2,4-dioxo-1,4-dihydroquinazolin-3(2H)-yl)methyl)-2-methylisoxazolidin-3-yl)phosphonate]
- EC50 [2]: 100 µM
- MIC [3]: 5000 µg/mL (≈ 9.89 mM)
- EC50 [4]: 58.5 µM
- Mutagenicity (Ames test) [5]: not being mutagenic
- MIC ([6]; PCM1948): 625 µg/mL (≈ 1.24 mM)
- MIC ([6]; PCM1948, 24 h, read-out: MIC = MBC): 625 µg/mL (≈ 1.24 mM)
- MIC [7]: 2500 µg/mL (≈ 4.95 mM)
- MBC [8]: > 5000 µg/mL
- MIC [8]: > 5000 µg/mL
- Cytotoxicity Cell Morphology MCC [9]: >100 μM
- MIC [10]: 2500 µg/mL (≈ 4.95 mM)
- MIC [11]: 5000 µg/mL (≈ 9.89 mM)
- MIC [12]: 2500 µg/mL (≈ 4.95 mM)

SMILES: C#CCn1c(=O)n(C(=O)c2ccc(F)cc2)c(=O)c2ccccc21 [compound 5]
- EC50 [13]: 8.3 µM
